Patent US20250320496A1, “MODULATION OF ABCB11 GENE TRANSCRIPTION USING ANTISENSE OLIGONUCLEOTIDES TARGETING REGULATORY RNAS” (CAMP4 Therapeutics Corporation, priority 2022, published 2025)
Strand notation (5' to 3'): a small letter for the sugar, then the base; units joined by * are phosphorothioate-linked, units joined directly phosphodiester-linked; [ ] holds rarer units or linkages, { } end groups; capitals alone tell only the bases. e = 2'-O-(2-methoxyethyl) (MOE); l = locked nucleic acid (LNA); [5mC] = 5-methylcytosine; d = 2'-deoxy (DNA)

tested on: human ABCB11 mRNA; assay: ASO treatment of primary human hepatocytes (PHH), ABCB11 mRNA by RT-qPCR normalized to B2M; assay type: cell-based; details: primary human hepatocytes, 5 μM ASO, normalized to untreated PHHs (UNT)
Method in brief: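 ABCB11 mRNA was quantified by Taqman RT-qPCR relative to B2M and expressed as fold over untreated cells. Cells were cryopreserved primary human hepatocytes given ASO in Matrigel-supplemented medium 4 h after plating, at 1.25, 2.5, 5 or 10 μM (5 μM for screening), and harvested after 72 hrs.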

| Substance | ABCB11 mRNA FC (5 μM ASO vs. UNT) [fold change] |
| --- | --- |
| CO-7054 (antisense eA*e[5mC]*e[5mC]*e[5mC]*e[5mC]*d[5mC]*d[5mC]*dT*d[5mC]*dA*d[5mC]*d[5mC]*dT*dT*dG*eG*eT*eT*e[5mC]*e[5mC]) | 1.323 |
| CO-7055 (antisense eT*e[5mC]*eA*e[5mC]*e[5mC]*e[5mC]*e[5mC]*e[5mC]*e[5mC]eT*e[5mC]*eA*e[5mC]*e[5mC]*eT*eT*eG*eG*eT*eT) | 1.498 |
| CO-7056 (antisense eT*eG*e[5mC]*eT*e[5mC]*eA*e[5mC]*e[5mC]*e[5mC]*e[5mC]*e[5mC]*e[5mC]*eT*e[5mC]*eA*e[5mC]*e[5mC]*eT*eT*eG) | 1.491 |
| CO-7057 (antisense eA*e[5mC]*eT*eG*e[5mC]*eT*e[5mC]*eA*e[5mC]*e[5mC]*e[5mC]*e[5mC]*e[5mC]*e[5mC]*eT*e[5mC]*eA*e[5mC]*e[5mC]*eT) | 1.145 |
| CO-7058 (antisense eT*e[5mC]*eT*eG*eG*lA*dA*dA*lA*dT*dA*lA*dT*dG*l[5mC]*e[5mC]*eT*eT*eT*e[5mC]) | 1.052 |
| CO-7059 (eT*e[5mC]*eT*lG*eG*dA*dA*lA*dA*dT*dA*lA*dT*dG*d[5mC]*l[5mC]*eT*eT*eT*e[5mC]; antisense) | 1.023 |
| CO-7060 (eT*e[5mC]*eT*eG*lG*dA*dA*dA*lA*dT*dA*dA*lT*dG*d[5mC]*e[5mC]*lT*eT*eT*e[5mC]; antisense) | 1.17 |
| CO-7061 (eT*e[5mC]*eT*lG*eG*lA*eA*lA*eA*lT*eA*lA*eT*lG*e[5mC]*l[5mC]*eT*lT*eT*e[5mC]; antisense) | 1.261 |
| CO-7062 (eT*e[5mC]*lT*eG*lG*eA*lA*eA*lA*eT*lA*eA*lT*eG*l[5mC]*e[5mC]*lT*eT*eT*e[5mC]; antisense) | 1.218 |
| CO-7063 (eT*e[5mC]*lT*eG*eG*lA*eA*eA*lA*eT*eA*lA*eT*eG*l[5mC]*e[5mC]*eT*lT*eT*e[5mC]; antisense) | 1.291 |
| CO-7064 (eT*e[5mC]*eT*eG*lG*eA*eA*eA*lA*eT*eA*eA*lT*eG*e[5mC]*e[5mC]*lT*eT*eT*e[5mC]; antisense) | 1.017 |
| CO-7065 (eT*e[5mC]*eT*lG*eG*eA*eA*lA*eA*eT*eA*lA*eT*eG*e[5mC]*l[5mC]*eT*eT*eT*e[5mC]; antisense) | 1.262 |
| CO-7066 (eT*e[5mC]*eT*eG*eG*lA*eA*eA*eA*eT*lA*eA*eT*eG*e[5mC]*l[5mC]*eT*eT*eT*e[5mC]; antisense) | 1.2 |
| CO-7067 (eT*e[5mC]*eT*eG*lG*eA*eA*eA*eA*lT*eA*eA*eT*eG*l[5mC]*e[5mC]*eT*eT*eT*e[5mC]; antisense) | 1.081 |
| CO-7068 (e[5mC]*eA*eT*eT*eT*lA*dG*dA*lG*dA*d[5mC]*lA*dA*dA*lG*eA*eA*eT*e[5mC]*eG; antisense) | 1.077 |
| CO-7069 (e[5mC]*eA*eT*lT*eT*dA*dG*lA*dG*dA*d[5mC]*lA*dA*dA*dG*lA*eA*eT*e[5mC]*eG; antisense) | 1.011 |
| CO-7070 (e[5mC]*eA*eT*eT*lT*dA*dG*dA*lG*dA*d[5mC]*dA*lA*dA*dG*eA*lA*eT*e[5mC]*eG; antisense) | 1.044 |
| CO-7088 (eA*e[5mC]*e[5mC]*e[5mC]*e[5mC]*l[5mC]*d[5mC]*dT*l[5mC]*dA*d[5mC]*l[5mC]*dT*dT*lG*eG*eT*eT*e[5mC]*e[5mC]; antisense) | 1.177 |

| Substance | ABCB11 mRNA FC (5 μM ASO vs. UNT) [fold change] |
| --- | --- |
| CO-7089 (eA*e[5mC]*e[5mC]*l[5mC]*e[5mC]*d[5mC]*d[5mC]*lT*d[5mC]*dA*d[5mC]*l[5mC]*dT*dT*dG*lG*eT*eT*e[5mC]*e[5mC]; antisense) | 1.249 |
| CO-7090 (eA*e[5mC]*e[5mC]*e[5mC]*l[5mC]*d[5mC]*d[5mC]*dT*l[5mC]*dA*d[5mC]*d[5mC]*lT*dT*dG*eG*lT*eT*e[5mC]*e[5mC]; antisense) | 1.203 |
| CO-7091 (eA*e[5mC]*e[5mC]*l[5mC]*e[5mC]*l[5mC]*e[5mC]*lT*e[5mC]*lA*e[5mC]*l[5mC]*eT*lT*eG*lG*eT*lT*e[5mC]*e[5mC]; antisense) | 1.164 |
| CO-7093 (eA*e[5mC]*l[5mC]*e[5mC]*e[5mC]*l[5mC]*e[5mC]*eT*l[5mC]*eA*e[5mC]*l[5mC]*eT*eT*lG*eG*eT*lT*e[5mC]*e[5mC]; antisense) | 1.269 |
| CO-7094 (eA*e[5mC]*e[5mC]*e[5mC]*l[5mC]*e[5mC]*e[5mC]*eT*l[5mC]*eA*e[5mC]e[5mC]*lT*eT*eG*eG*lT*eT*e[5mC]*e[5mC]) | 0.993 |
| CO-7095 (eA*e[5mC]*e[5mC]*l[5mC]*e[5mC]*e[5mC]*e[5mC]*lT*e[5mC]*eA*e[5mC]*l[5mC]*eT*eT*eG*lG*eT*eT*e[5mC]*e[5mC]; antisense) | 0.925 |
| CO-7096 (eA*e[5mC]*e[5mC]*e[5mC]*e[5mC]*l[5mC]*e[5mC]*eT*e[5mC]*eA*l[5mC]*e[5mC]*eT*eT*eG*lG*eT*eT*e[5mC]*e[5mC]; antisense) | 1.157 |
| CO-7097 (eA*e[5mC]*e[5mC]*e[5mC]*l[5mC]*e[5mC]*e[5mC]*eT*e[5mC]*lA*e[5mC]*e[5mC]*eT*eT*lG*eG*eT*eT*e[5mC]*e[5mC]; antisense) | 1.028 |
| CO-7098 (eA*eT*e[5mC]eT*eG*eG*dA*dA*dA*dA*dT*dA*dA*dT*dG*d[5mC]*e[5mC]*eT*eT*eT*e[5mC]*eT) | 1.04 |
| CO-7099 (eA*eT*e[5mC]*eT*eG*eG*eA*eA*eA*eA*eT*eA*eA*eT*eG*e[5mC]*e[5mC]*eT*eT*eT*e[5mC]*eT; antisense) | 0.882 |
| CO-7100 (eA*eT*e[5mC]*eT*eG*dG*dA*dA*eA*dA*dT*dA*dA*eT*dG*d[5mC]*d[5mC]*eT*eT*eT*e[5mC]*eT; antisense) | 1.406 |
| CO-7101 (eA*eT*e[5mC]*eT*eG*lG*dA*dA*lA*dA*dT*dA*dA*lT*dG*d[5mC]*l[5mC]*eT*eT*eT*e[5mC]*eT; antisense) | 1.165 |
| CO-7102 (eT*eA*eT*e[5mC]*eT*eG*eG*dA*dA*dA*dA*dT*dA*dA*dT*dG*d[5mC]*e[5mC]*eT*eT*eT*e[5mC]*eT*eA; antisense) | 1.068 |
| CO-7103 (eT*eA*eT*e[5mC]*eT*eG*eG*eA*eA*eA*eA*eT*eA*eA*eT*eG*e[5mC]*e[5mC]*eT*eT*eT*e[5mC]*eT*eA; antisense) | 1.006 |
| CO-7104 (eT*eA*eT*e[5mC]*eT*dG*dG*eA*dA*dA*eA*dT*dA*eA*dT*dG*e[5mC]*d[5mC]*dT*eT*eT*e[5mC]*eT*eA; antisense) | 0.918 |
| CO-7105 (eT*eA*eT*e[5mC]*eT*dG*dG*lA*dA*dA*lA*dT*dA*lA*dT*dG*l[5mC]*d[5mC]*dT*eT*eT*e[5mC]*eT*eA; antisense) | 1.002 |
| CO-7106 (eA*e[5mC]*eA*eT*eT*eT*dA*dG*dA*dG*dA*d[5mC]*dA*dA*dA*dG*eA*eA*eT*e[5mC]*eG*e[5mC]; antisense) | 1.246 |
